This is an account of results in US20240342186A1, “PYRIDINE DERIVATIVES WITH N-LINKED CYCLIC SUBSTITUENTS AS cGAS INHIBITORS” (Boehringer Ingelheim International GmbH, priority 2021, published 2024).

Assay [1] relates to cellular cGAS activity in baculovirus-stimulated THP1-Dual cells (IRF dependent Lucia luciferase reporter). In words: Human cGAS cell assay: inhibition of IFN induction in virus-stimulated THP1 cells (THP1(vir) IC50). It counts as cell-based. The note with it: read-out: THP1(vir) IC50. In a few lines:
(§1)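 THP1-Dual cells with IRF-dependent Lucia luciferase reporter, stimulated by empty baculovirus (dsDNA delivery activating cGAS) or, for the counter assay, directly by cGAMP. 5000 cells/well, 8 concentrations from 10 μM top, 1% DMSO, 18 h at 37 °C; luminescence read, IC50 by 4-parameter logistic fit versus unstimulated low control.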

Assay [2] concerns cGAMP-stimulated THP1-Dual cells (pathway directly downstream of cGAS). In words: cGAMP stimulated counter cell assay: inhibition of IFN induction in cGAMP-stimulated THP1 cells (THP1(cGAMP) IC50). The assay is classed as cell-based, human. Conditions: for IC50: read-out: THP1(cGAMP) IC50 (converted); for Ratio THP1(cGAMP) IC50 / THP1(vir) IC50: selectivity for cGAS inhibition. In a few lines: as §1

The target of assay [3] is T1, cGAS (Homo sapiens (Human), UniProt Q8N884). Conditions: groups of page 44/45 of WO 2020/142729; read-out: biochemical (in vitro) IC50 group; cited from earlier work.
The target of assay [4] is T1, cGAS. In words: Human cGAS enzyme assay (hcGAS IC50, in vitro), cGAMP formation by RapidFire MS.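 Note: enzyme activated by 45 bp dsDNA with GTP and ATP (30 µM each), 60 min compound pre-incubation then 90 min reaction, cGAMP relative to cyclic-di-GMP internal standard, 8-point dilutions up to 10 µM.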 It counts as biochemical.
The subject of assay [5] is cellular cGAS activity in dsDNA-stimulated human whole blood. In words: Human whole blood assay (hWB IC50): IFNα2α production after dsDNA transfection. It counts as cell-based. In a few lines: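 Citrated blood from healthy donors preincubated 60 min at room temperature with compound (top 10 µM, ~1:5 steps, 0.1% DMSO), then transfected with dsDNA/Fugene and incubated 22 h at 37 °C. Plasma IFNα2α measured by MSD immunoassay; IC50 from 4-parameter fit of % control (stimulated vs unstimulated).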

Setting [6] is: Homo sapiens, THP1-Dual, cGAMP-stimulated THP1 cells, counter assay.
Setting [7] is: biochemical (in vitro) cGAS inhibition.
The mark [8] stands for this setting: Homo sapiens, THP1-Dual, inhibition of IFN induction in virus-stimulated THP1 cells.
Where [9] appears, read: Homo sapiens, THP1-Dual, inhibition of IFN induction in cGAMP-stimulated THP1 cells.
[10] abbreviates: inhibition of IFN induction in dsDNA-stimulated human whole blood.

Where two headings read alike, the source gives them in different places.

T1 sequence (Q8N884 whole entry): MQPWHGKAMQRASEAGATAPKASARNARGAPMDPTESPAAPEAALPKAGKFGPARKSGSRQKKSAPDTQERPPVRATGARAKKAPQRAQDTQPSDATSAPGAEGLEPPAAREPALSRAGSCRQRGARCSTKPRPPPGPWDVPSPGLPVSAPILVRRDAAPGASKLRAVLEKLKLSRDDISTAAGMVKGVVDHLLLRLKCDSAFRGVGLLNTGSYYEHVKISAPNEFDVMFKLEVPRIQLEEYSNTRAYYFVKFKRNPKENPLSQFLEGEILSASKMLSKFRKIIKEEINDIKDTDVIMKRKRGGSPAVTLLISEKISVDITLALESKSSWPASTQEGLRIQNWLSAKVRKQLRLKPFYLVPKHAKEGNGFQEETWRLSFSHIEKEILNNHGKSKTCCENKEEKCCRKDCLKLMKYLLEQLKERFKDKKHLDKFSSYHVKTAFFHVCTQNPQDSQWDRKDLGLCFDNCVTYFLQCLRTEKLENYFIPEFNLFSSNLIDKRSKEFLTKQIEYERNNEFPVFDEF

As usually defined, the IC50 is the midpoint of a concentration-inhibition curve. As for `Cc1nc(N2C[C@@H](Cc3nn[nH]n3)C[C@H]2C(=O)O)c2oc3ccccc3c2n1` [Example 25, reference compound], the IC50 was 17000 nM in assay [1] (Homo sapiens, THP1-Dual, virus-stimulated THP1 cells); more than 17000 nM in assay [2] (setting [6]); less than 100 nM on cGAS [3].

With `CNc1cc(-c2cnc(O[C@H]3C[C@@H](C(=O)O)N(c4nc(C(F)(F)F)nc5c4oc4ccccc45)C3)c(N3CCOC4(COC4)[C@@H]3C)c2)ccn1` [Example 3.09], the IC50 on cGAS [4] (setting [7]) was 9 nM; in assay [1] (setting [8]) it was 8 nM; in assay [2] (setting [9]), 4820 nM; in assay [5] (setting [10]), 8 nM. Moreover, the “Ratio THP1(cGAMP) IC50 / THP1(vir) IC50” value in assay [2] stood at 585.

Regarding `C[C@@H]1N(c2cc(Cl)cnc2O[C@H]2C[C@@H](C(=O)O)N(c3nc(C(F)F)nc4c3oc3ccccc34)C2)CCCC12COC2` [Example 1.21], the IC50 is 4 nM against cGAS [4] (setting [7]), 85 nM in assay [1] (setting [8]), 14800 nM in assay [2] (setting [9]) and 46 nM in assay [5] (setting [10]). The “Ratio THP1(cGAMP) IC50 / THP1(vir) IC50” value in assay [2] is listed as 175.

With `CC#Cc1cnc(O[C@H]2C[C@@H](C(=O)O)N(c3nc(C(F)F)nc4c3oc3ccccc34)C2)c(N2CCOC3(COC3)[C@@H]2C)c1` [Example 6.02], the IC50 at cGAS [4] (setting [7]) is 6 nM; in assay [1] (setting [8]), less than 5 nM; in assay [2] (setting [9]), more than 16000 nM; in assay [5] (setting [10]) it was 8 nM. In addition, the “Ratio THP1(cGAMP) IC50 / THP1(vir) IC50” value in assay [2] is more than 3000.

For `C[C@@H]1N(c2cc(-c3cccc(CN)c3)cnc2O[C@H]2C[C@@H](C(=O)O)N(c3nc(C(F)F)nc4c3oc3ccccc34)C2)CCOC12COC2` [Example 3.19], the IC50 is 8 nM against cGAS [4] (setting [7]), 267 nM in assay [1] (setting [8]), more than 16600 nM in assay [2] (setting [9]) and 47 nM in assay [5] (setting [10]). In assay [2], the “Ratio THP1(cGAMP) IC50 / THP1(vir) IC50” value is listed as more than 62.

With `C#Cc1cnc(O[C@H]2C[C@@H](C(=O)O)N(c3nc(C(F)F)nc4c3oc3ccccc34)C2)c(N2CCCC[C@@H]2C)c1` [Example 1.19], the IC50 against cGAS [4] (setting [7]) was 4 nM; in assay [1] (setting [8]), 699 nM; in assay [2] (setting [9]), more than 16600 nM; in assay [5] (setting [10]) it was 667 nM. Besides, the “Ratio THP1(cGAMP) IC50 / THP1(vir) IC50” value in assay [2] was more than 24.

Take `C[C@@H]1N(c2cc(-c3cccc(C(N)=O)c3)cnc2O[C@H]2C[C@@H](C(=O)O)N(c3nc(C(F)(F)F)nc4c3oc3ccccc34)C2)CCOC12COC2` [Example 3.13]: the IC50 was 9 nM at cGAS [4] (setting [7]), 25 nM in assay [1] (setting [8]), 8350 nM in assay [2] (setting [9]) and 65 nM in assay [5] (setting [10]). Besides, the “Ratio THP1(cGAMP) IC50 / THP1(vir) IC50” value in assay [2] was 335.

Take `C#Cc1cnc(O[C@H]2C[C@@H](C(=O)O)N(c3nc(C(F)(F)F)nc4c3oc3ccccc34)C2)c(N2CCOCC2)c1` [Example 2.02]: the 50% inhibitory concentration (IC50) at cGAS [4] (setting [7]) was 7 nM; in assay [1] (setting [8]), 752 nM; in assay [2] (setting [9]), more than 16600 nM; in assay [5] (setting [10]), 1030 nM. Also, in assay [2], the “Ratio THP1(cGAMP) IC50 / THP1(vir) IC50” value is recorded as more than 22.

As to `Cc1cnc(-c2cnc(O[C@H]3C[C@@H](C(=O)O)N(c4nc(C(F)(F)F)nc5c4oc4ccccc45)C3)c(N3CCOC4(COC4)[C@@H]3C)c2)cn1` [Example 7.04], the IC50 is 12 nM at cGAS [4] (setting [7]), 2 nM in assay [1] (setting [8]), more than 10000 nM in assay [2] (setting [9]) and 22 nM in assay [5] (setting [10]). Further, in assay [2], the “Ratio THP1(cGAMP) IC50 / THP1(vir) IC50” value is 4084.

Regarding `C#Cc1cnc(O[C@H]2C[C@@H](C(=O)O)N(c3nc(C(F)F)nc4c3oc3ccccc34)C2)c(N2CCOC[C@@H]2C)c1` [Example 1.31], the IC50 on cGAS [4] (setting [7]) was 3 nM; in assay [1] (setting [8]), 232 nM; in assay [2] (setting [9]) it was more than 16600 nM; in assay [5] (setting [10]) it was 102 nM. Also, the “Ratio THP1(cGAMP) IC50 / THP1(vir) IC50” value in assay [2] is reported as more than 72.

On to `C#Cc1cnc(O[C@H]2C[C@@H](C(=O)O)N(c3nc(C(F)F)nc4c3oc3ccccc34)C2)c(N2CCOCC2)c1` [Example 2.01, (2S,4S)-1-[4-(Difluoromethyl)-8-oxa-3,5-diazatricyclo[7.4.0.0^2,7]trideca-1(13),2,4,6,9,11-hexzen-6-yl]-4-{[5-ethynyl-3-(morpholin-4-yl)pyridin-2yl]oxy}-pyrrolidine-2-carboxylic acid], for which the IC50 on cGAS [4] (setting [7]) was 8 nM; in assay [1] (setting [8]), 858 nM; in assay [2] (setting [9]), more than 16600 nM; in assay [5] (setting [10]) it was 506 nM. In addition, the “Ratio THP1(cGAMP) IC50 / THP1(vir) IC50” value in assay [2] is more than 19.

Consider “(2S,4S)-4-({3-[(95)-9-Methyl-2,5-dioxa-8-azaspiro[3.5]nonan-8-yl]-5-(pyrimidin-5-yl)pyridin-2-yl}oxy)-1-[4-(trifluoromethyl)-8-oxa-3,5-diazatricyclo[7.4.0.0^2,7]trideca-1(9),2(7),3,5,10,12-hexaen-6-yl]pyrrolidine-2-carboxylic acid [Example 7.01]”, for which the IC50 against cGAS [4] (setting [7]) is 14 nM; in assay [1] (inhibition of IFN induction in virus-stimulated THP1 cells), 5 nM; in assay [2] (inhibition of IFN induction in cGAMP-stimulated THP1 cells), 9260 nM; in assay [5] (setting [10]), 50 nM. Also, the “Ratio THP1(cGAMP) IC50 / THP1(vir) IC50” value in assay [2] is listed as 1700.

`COC(=O)[C@@H]1C[C@H](Oc2ncc(-c3cccnc3OC)cc2N2CCOC3(COC3)[C@@H]2C)CN1c1nc(C(F)(F)F)nc2c1oc1ccccc12` [Example P04]: the IC50 against cGAS [4] (biochemical (in vitro), human cGAS, 45 bp dsDNA, GTP/ATP) was more than 9950 nM; in assay [1] (Homo sapiens, THP1-Dual, virus-stimulated THP1 cells, IFN induction) it was 67 nM; in assay [2] (setting [6]), more than 16600 nM; in assay [5] (dsDNA-stimulated human whole blood, IFN induction) it was 2750 nM.

With `C[C@@H]1N(c2cc(-c3cnn(C(F)F)c3)cnc2O[C@H]2C[C@@H](C(=O)O)N(c3nc(C(F)(F)F)nc4c3oc3ccccc34)C2)CCOC12COC2` [Example 3.31], the IC50 is 11 nM on cGAS [4] (setting [7]), 3 nM in assay [1] (setting [8]), 10900 nM in assay [2] (setting [9]) and 28 nM in assay [5] (setting [10]). The “Ratio THP1(cGAMP) IC50 / THP1(vir) IC50” value in assay [2] is recorded as 4120.

`C[C@@H]1N(c2cc(-c3cn(C)nn3)cnc2O[C@H]2C[C@@H](C(=O)O)N(c3nc(C(F)(F)F)nc4c3oc3ccccc34)C2)CCOC12COC2` [Example 8.01, (2S,4S)-4-{[5-(1-methyl-1H-1,2,3-triazol-4-yl)-3-[(95)-9-methyl-2,5-dioxa-8-azaspiro[3.5]nonan-8-yl]pyridin-2-yl]oxy}-1-[4-(trifluoromethyl)-8-oxa-3,5-diazatricyclo[7.4.0.0^2,7]trideca-1(9),2(7),3,5,10,12-hexaen-6-yl]pyrrolidine-2-carboxylic acid]: the IC50 against cGAS [4] (setting [7]) is 5 nM; in assay [1] (setting [8]), 11 nM; in assay [2] (setting [9]) it was 14900 nM; in assay [5] (setting [10]), 21 nM. Moreover, the “Ratio THP1(cGAMP) IC50 / THP1(vir) IC50” value in assay [2] is recorded as 1366.

As to `C[C@@H]1N(c2cc(-c3ccnc([S+](C)[O-])c3)cnc2O[C@H]2C[C@@H](C(=O)O)N(c3nc(C(F)F)nc4c3oc3ccccc34)C2)CCOC12COC2` (stereo partly drawn) [Example 5.01, (2S,4S)-1-[4-(Difluoromethyl)-8-oxa-3,5-diazatricyclo[7.4.0.0^2,7]trideca-1(9),2(7),3,5,10,12-hexaen-6-yl]-4-({2′-methanesulfinyl-5-[(95)-9-methyl-2,5-dioxa-8-azaspiro[3.5]nonan-8-yl]-[3,4′-bipyridin]-6-yl}oxy)pyrrolidine-2-carboxylic acid], the IC50 on cGAS [4] (setting [7]) was 5 nM; in assay [1] (setting [8]), 579 nM; in assay [2] (setting [9]) it was 22100 nM; in assay [5] (setting [10]), 239 nM. In addition, the “Ratio THP1(cGAMP) IC50 / THP1(vir) IC50” value in assay [2] was found to be 38.
